Measured values: ChEMBL document CHEMBL1201862, “PubChem BioAssay data set” (2004)
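Exposure lasted 48 hours, with cells grown in 96-well plates and compounds tested at five concentrations. GI50 marks 50% less growth.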 Calls of active or inactive are those of the source. Cut-off read from the data, not from the text of the source: active = GI50 up to about 1.1 µM and inactive = higher.

Tests used:
Assay in all cases: inhibition of tumour cell growth, NCI panel, 48 h
[1] = tested on: HT-29
[2] = tested on: SNB-75
[3] = tested on: SF-295
[4] = tested on: OVCAR-8
[5] = tested on: DMS-114
[6] = tested on: HCT-116
[7] = tested on: SF-268
[8] = tested on: CCRF-CEM
[9] = tested on: RXF 393
[10] = tested on: HCT-15
[11] = tested on: HCC 2998
[12] = tested on: SNB-78
[13] = tested on: SK-MEL-28
[14] = tested on: SW-620
[15] = tested on: OVCAR-4
[16] = tested on: KM-20L2
[17] = tested on: KM12
[18] = tested on: TK-10
[19] = tested on: M14
[20] = tested on: SK-MEL-2
[21] = tested on: M19-MEL
[22] = tested on: 786-0
[23] = tested on: LOX IMVI
[24] = tested on: A498
[25] = tested on: A549
[26] = tested on: NCI-H23
[27] = tested on: U-251
[28] = tested on: DMS-273
[29] = tested on: Malme-3M
[30] = tested on: CAKI-1
[31] = tested on: UACC-257
[32] = tested on: NCI-H226
[33] = tested on: ACHN
[34] = tested on: NCI-H460
[35] = tested on: SN12C
[36] = tested on: SK-OV-3
[37] = tested on: OVCAR-3
[38] = tested on: COLO 205
[39] = tested on: UACC-62
[40] = tested on: SNB-19
[41] = tested on: HOP-62
[42] = tested on: LXFL 529
[43] = tested on: SF-539
[44] = tested on: SK-MEL-5
[45] = tested on: MOLT-4
[46] = tested on: NCI-H522
[47] = tested on: OVCAR-5
[48] = tested on: UO-31
[49] = tested on: IGROV-1
[50] = tested on: HOP-18
[51] = tested on: RPMI-8226
[52] = tested on: K562
[53] = tested on: SR
[54] = tested on: DLD-1
[55] = tested on: EKVX
[56] = tested on: HOP-92
[57] = tested on: HL-60

## OC12c3ccccc3C1CCCCCCCCCC21OCCO1 (stereo not drawn)
[1]
  GI50: > 100 µM (inactive)
[2]
  GI50: > 100 µM (inactive)
[3]
  GI50: > 100 µM (inactive)
[4]
  GI50: > 100 µM (inactive)
[5]
  GI50: > 100 µM (inactive)
[6]
  GI50: > 100 µM (inactive)
[7]
  GI50: > 100 µM (inactive)
[8]
  GI50: > 100 µM (inactive)
[9]
  GI50: > 100 µM (inactive)
[10]
  GI50: > 100 µM
[11]
  GI50: > 100 µM (inactive)
[12]
  GI50: > 100 µM (inactive)
[13]
  GI50: > 100 µM (inactive)
[14]
  GI50: > 100 µM (inactive)
[15]
  GI50: > 100 µM (inactive)
[16]
  GI50: > 100 µM (inactive)
[17]
  GI50: > 100 µM (inactive)
[18]
  GI50: > 100 µM (inactive)
[19]
  GI50: > 100 µM (inactive)
[20]
  GI50: > 100 µM (inactive)
[21]
  GI50: > 100 µM (inactive)
[22]
  GI50: > 100 µM (inactive)
[23]
  GI50: > 100 µM (inactive)
[24]
  GI50: > 100 µM (inactive)
[25]
  GI50: > 100 µM (inactive)
[26]
  GI50: > 100 µM (inactive)
[27]
  GI50: > 100 µM (inactive)
[28]
  GI50: > 100 µM (inactive)
[29]
  GI50: > 100 µM (inactive)
[30]
  GI50: > 100 µM (inactive)
[31]
  GI50: > 100 µM (inactive)
[32]
  GI50: > 100 µM (inactive)
[33]
  GI50: > 100 µM (inactive)
[34]
  GI50: > 100 µM (inactive)
[35]
  GI50: > 100 µM (inactive)
[36]
  GI50: > 100 µM (inactive)
[37]
  GI50: > 100 µM (inactive)
[38]
  GI50: > 100 µM (inactive)
[39]
  GI50: > 100 µM (inactive)
[40]
  GI50: > 100 µM (inactive)
[41]
  GI50: > 100 µM (inactive)
[42]
  GI50: > 100 µM (inactive)
[43]
  GI50: > 100 µM (inactive)
[44]
  GI50: > 100 µM (inactive)
[45]
  GI50: > 100 µM (inactive)
[46]
  GI50: > 100 µM (inactive)
[47]
  GI50: > 100 µM (inactive)
[48]
  GI50: > 100 µM (inactive)
[49]
  GI50: > 100 µM (inactive)
[50]
  GI50: > 100 µM (inactive)
[51]
  GI50: > 100 µM (inactive)
[52]
  GI50: > 100 µM (inactive)

## CN(C)c1ccc(/C=C(/NC(=O)c2ccccc2)c2nc3cc(Cl)ccc3[nH]2)cc1
[1]
  GI50: 28.6 µM (inactive)
[2]
  GI50: 17.9 µM (inactive)
[3]
  GI50: 28 µM (inactive)
[53]
  GI50: 30.3 µM (inactive)
[4]
  GI50: 35.3 µM (inactive)
[6]
  GI50: 37.8 µM (inactive)
[54]
  GI50: 34.4 µM (inactive)
[7]
  GI50: > 100 µM (inactive)
[8]
  GI50: 22.4 µM (inactive)
[9]
  GI50: 30.2 µM (inactive)
[10]
  GI50: 16.6 µM
[11]
  GI50: 18.5 µM (inactive)
[12]
  GI50: 63.1 µM (inactive)
[13]
  GI50: 83.9 µM (inactive)
[14]
  GI50: 10.4 µM (inactive)
[15]
  GI50: 18.6 µM (inactive)
[16]
  GI50: 27.7 µM (inactive)
[17]
  GI50: 15.6 µM (inactive)
[18]
  GI50: 64.4 µM (inactive)
[19]
  GI50: 32.7 µM (inactive)
[20]
  GI50: 37.1 µM (inactive)
[21]
  GI50: 27.5 µM (inactive)
[22]
  GI50: 27.8 µM (inactive)
[23]
  GI50: 18.3 µM (inactive)
[24]
  GI50: 72.3 µM (inactive)
[25]
  GI50: 63.2 µM (inactive)
[55]
  GI50: 87.3 µM (inactive)
[26]
  GI50: 8.51 µM (inactive)
[27]
  GI50: 35.5 µM (inactive)
[28]
  GI50: 32.4 µM (inactive)
[29]
  GI50: 23.1 µM (inactive)
[56]
  GI50: > 100 µM (inactive)
[57]
  GI50: 16 µM (inactive)
[30]
  GI50: 61.7 µM (inactive)
[31]
  GI50: 20.3 µM (inactive)
[32]
  GI50: 30.8 µM (inactive)
[33]
  GI50: 48.9 µM (inactive)
[34]
  GI50: 33.6 µM (inactive)
[35]
  GI50: 47.9 µM (inactive)
[36]
  GI50: 52.6 µM (inactive)
[37]
  GI50: 0.0123 µM (active)
[38]
  GI50: 20.7 µM (inactive)
[39]
  GI50: 36 µM (inactive)
[40]
  GI50: 45.1 µM (inactive)
[41]
  GI50: > 100 µM (inactive)
[42]
  GI50: 30.1 µM (inactive)
[43]
  GI50: 55.8 µM (inactive)
[44]
  GI50: 21.6 µM (inactive)
[45]
  GI50: 20.9 µM (inactive)
[46]
  GI50: 22 µM (inactive)
[47]
  GI50: 26 µM (inactive)
[48]
  GI50: 28.8 µM (inactive)
[49]
  GI50: > 100 µM (inactive)
[50]
  GI50: 2.42 µM (inactive)
[51]
  GI50: 19.1 µM (inactive)
[52]
  GI50: 19 µM (inactive)
